# Patent USRE47689E1, “Compounds for treating spinal muscular atrophy” (PTC Therapeutics, Inc., priority 2011, dated 2019)
# Experiments:
# [1] = test system: SMN2 minigene (full length SMN2 minigene mRNA containing SMN2 exon 7); test: SMN2 minigene mRNA splicing RT-qPCR assay in cultured cells; assay type: cell-based, human; conditions: Homo sapiens, HEK293-H; HEK293H cells stably transfected with SMN2-A minigene; 24 hours; 7-point concentration curve; 1.5-fold relative to vehicle-treated cells; read-out: EC1.5x for production of full length SMN2 mRNA
# In short: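 Lysates → one-step RT-qPCR, minigene-specific primers (0.4 μM final) + GAPDH multiplex, 40 cycles. FL/GAPDH vs DMSO; EC1.5x, star-binned.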
# Smn protein = Smn protein assay in cultured cells (SMN HTRF); assay type: cell-based, human; conditions: 48 hours; for EC1.5x (concentration giving 1.5-fold Smn protein increase): SMA Type 1 patient fibroblast cells (GM03813), 7-point concentration curve, SMN HTRF, concentration producing 1.5 times Smn protein vs DMSO vehicle control, read-out: EC1.5x for Smn protein expression; for maximum fold (Fold) increase of Smn protein: SMA patient fibroblast cells, 7-point concentration data, fold increase relative to vehicle control (SMN HTRF)
# In short: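 Smn in SMA fibroblast lysates, measured by anti-SMN HTRF after 48 h compound exposure; EC1.5x from fold change over vehicle.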
Structure (SMILES),melting point [°C],EC (1.5-fold) [1] [µM],EC1.5x (concentration giving 1.5-fold Smn protein increase) (Smn protein) [nM],maximum fold (Fold) increase of Smn protein (Smn protein)
"Cc1cn2cc(-c3cc4ccc(N5CCN(C)CC5)cc4oc3=O)cc2c(C)n1 [Compound 644, 3-(1,3-dimethylpyrrolo[1,2-a]pyrazin-7-yl)-7-(4-methylpiperazin-1-yl)-2H-chromen-2-one]",127 to 131,< 0.1,< 300,***** (fold increase >1.65)
"CCc1ccn2cc(-c3cc4ccc(N5CCCN(C)CC5)cc4oc3=O)nc2c1 [Compound 333, 3-(7-ethylimidazo[1,2-a]pyridin-2-yl)-7-(4-methyl-1,4-diazepan-1-yl)-2H-chromen-2-one]",181 to 187,0.3 to 1,,* (maximum fold increase of ≤1.2)
"Cc1cn2cc(-c3cc4ccc(N5CCN(C)CC5)cc4oc3=O)ccc2n1 [Compound 678, 3-(2-methylimidazo[1,2-a]pyridin-6-yl)-7-(4-methylpiperazin-1-yl)-2H-chromen-2-one]",235 to 238,< 0.1,< 300,***** (fold increase >1.65)
"Cc1cn2cc(-c3cc4ccc(N5C[C@@H]6C[C@H]5CN6)cc4oc3=O)nc2cn1 [Compound 623, 7-[(1S,4S)-2,5-diazabicyclo[2.2.1]hept-2-yl]-3-(6-methylimidazo[1,2-a]pyrazin-2-yl)-2H-chromen-2-one]",225 to 227,< 0.1,300 to 1000,*** (fold increase between >1.35 and ≤1.5)
"C[C@H]1CN(c2ccc3cc(-c4cn5ccsc5n4)c(=O)oc3c2)CCN1 [Compound 205, 3-(imidazo[2,1-b][1,3]thiazol-6-yl)-7-[(3S)-3-methylpiperazin-1-yl]-2H-chromen-2-one]",230 to 233,< 0.1,,*** (fold increase between >1.35 and ≤1.5)
"Cc1nc(Cl)cn2cc(-c3cc4ccc(N5CCN6CCC[C@H]6C5)cc4oc3=O)nc12 [Compound 711, 3-(6-chloro-8-methylimidazo[1,2-a]pyrazin-2-yl)-7-[(8aS)-hexahydropyrrolo[1,2-a]pyrazin-2(1H)-yl]-2H-chromen-2-one]",260 to 262,< 0.1,1000 to 3000,*** (fold increase between >1.35 and ≤1.5)
"Cc1cn2cc(-c3cc4ccc(N5CC(N(C)C)C5)cc4oc3=O)nc2c(C)n1 [Cpd 943, 7-[3-(dimethylamino)azetidin-1-yl]-3-(6,8-dimethylimidazo[1,2-a]pyrazin-2-yl)-2H-chromen-2-one]",246 to 250,< 0.1,< 300,**** (fold increase between >1.5 and ≤1.65)
"CCN1CCN(c2ccc3cc(-c4cn5cc(C)ncc5n4)c(=O)oc3c2)CC1 [Compound 622, 7-(4-ethylpiperazin-1-yl)-3-(6-methylimidazo[1,2-a]pyrazin-2-yl)-2H-chromen-2-one]",242 to 255,< 0.1,< 300,**** (fold increase between >1.5 and ≤1.65)
"Cc1ccc2nc(-c3cc4ccc(N5CCCN(C)CC5)cc4oc3=O)cn2c1 [Compound 142, 7-(4-methyl-1,4-diazepan-1-yl)-3-(6-methylimidazo[1,2-a]pyridin-2-yl)-2H-chromen-2-one]",175 to 180,1 to 3,300 to 1000,**** (fold increase between >1.5 and ≤1.65)
"Cc1nc(Cl)cn2cc(-c3cc4ccc(N5CCN[C@H](C)C5)cc4oc3=O)nc12 [Compound 699, 3-(6-chloro-8-methylimidazo[1,2-a]pyrazin-2-yl)-7-[(3R)-3-methylpiperazin-1-yl]-2H-chromen-2-one]",265 to 268,0.1 to 0.3,300 to 1000,***** (fold increase >1.65)
"Cc1cn2cc(-c3cc4ccc(N5C[C@@H]6CCN(C)[C@@H]6C5)cc4oc3=O)nc2c(C)n1 [Compound 706, 3-(6,8-dimethylimidazo[1,2-a]pyrazin-2-yl)-7-[(3aS,6aS)-1-methylhexahydropyrrolo[3,4-b]pyrrol-5(1H)-yl]-2H-chromen-2-one]",252 to 262,< 0.1,300 to 1000,**** (fold increase between >1.5 and ≤1.65)
"Cc1cc([N+](=O)[O-])c2nc(-c3cc4ccc(N5C[C@@H](C)N[C@@H](C)C5)cc4oc3=O)cn2c1 [Compound 701, 7-[(3R,5S)-3,5-dimethylpiperazin-1-yl]-3-(6-methyl-8-nitroimidazo[1,2-a]pyridin-2-yl)-2H-chromen-2-one]",290 to 300,1 to 3,,** (fold increase between >1.2 and ≤1.35)
"Cc1cn2cc(-c3cc4ccc(N5CCCN(C)CC5)cc4oc3=O)nc2s1 [Compound 153, 7-(4-methyl-1,4-diazepan-1-yl)-3-(2-methylimidazo[2,1-b][1,3]thiazol-6-yl)-2H-chromen-2-one]",179 to 184,1 to 3,,*** (fold increase between >1.35 and ≤1.5)
"COc1cccn2cc(-c3cc4ccc(N5C[C@@H](C)N[C@@H](C)C5)cc4oc3=O)nc12 [Compound 418, 7-[(3R,5 S)-3,5-dimethylpiperazin-1-yl]-3-(8-methoxyimidazo[1,2-a]pyridin-2-yl)-2H-chromen-2-one]",184 to 186,1 to 3,300 to 1000,**** (fold increase between >1.5 and ≤1.65)
"C[C@H]1CN(c2ccc3cc(-c4cn5ccc(C(F)(F)F)cc5n4)c(=O)oc3c2)CCN1 [Compound 268, 7-[(3S)-3-methylpiperazin-1-yl]-3-[7-(trifluoromethyl)imidazo[1,2-a]pyridin-2-yl]-2H-chromen-2-one]",252 to 260,0.3 to 1,,* (maximum fold increase of ≤1.2)
"O=c1oc2cc(N3C[C@@H]4C[C@H]3CN4)ccc2cc1-c1nc(C(F)(F)F)cs1 [Compound 266, 7-[(1S,4S)-2,5-diazabicyclo[2.2.1]hept-2-yl]-3-[4-(trifluoromethyl)-1,3-thiazol-2-yl]-2H-chromen-2-one]",211 to 220,1 to 3,,* (maximum fold increase of ≤1.2)
"CN(C)Cc1ccc2cc(-c3cn4ccsc4n3)c(=O)oc2c1 [Compound 198, 7-[(dimethylamino)methyl]-3-(imidazo[2,1-b][1,3]thiazol-6-yl)-2H-chromen-2-one]",135 to 140,0.3 to 1,3000 to 10000,**** (fold increase between >1.5 and ≤1.65)
"Cc1csc2nc(-c3cc4ccc(N5C[C@@H](C)N[C@@H](C)C5)cc4oc3=O)cn12 [Compound 182, 7-[(3R,5S)-3,5-dimethylpiperazin-1-yl]-3-(3-methylimidazo[2,1-b][1,3]thiazol-6-yl)-2H-chromen-2-one]",211 to 215,1 to 3,,** (fold increase between >1.2 and ≤1.35)
"Cc1cn2cc(-c3cc4ccc(N5CCC(NC(C)CO)CC5)cc4oc3=O)nc2c(C)n1 (stereo not shown) [Compound 925, 3-(6,8-dimethylimidazo[1,2-a]pyrazin-2-yl)-7-{4-[(1-hydroxypropan-2-yl)amino]piperidin-1-yl}-2H-chromen-2-one]",185 to 189,< 0.1,1000 to 3000,*** (fold increase between >1.35 and ≤1.5)
"O=c1oc2cc(N3CCCNCC3)cc(F)c2cc1-c1nc2c(F)cccc2o1 [Compound 368, 7-(1,4-diazepan-1-yl)-5-fluoro-3-(4-fluoro-1,3-benzoxazol-2-yl)-2H-chromen-2-one]",240 to 245,0.3 to 1,,** (fold increase between >1.2 and ≤1.35)
"CC(C)NCc1ccc2cc(-c3nc4c(C(F)(F)F)cccc4s3)c(=O)oc2c1 [Compound 9, 7-[(propan-2-ylamino)methyl]-3-[4-(trifluoromethyl)-1,3-benzothiazol-2-yl]-2H-chromen-2-one]",191 to 196,3 to 30,,* (maximum fold increase of ≤1.2)
"Cc1cn2cc(-c3cc4ccc(N5CCN6CCC[C@H]6C5)cc4oc3=O)cc2c(C)n1 [Compound 673, 3-(1,3-dimethylpyrrolo[1,2-a]pyrazin-7-yl)-7-[(8aS)-hexahydropyrrolo[1,2-a]pyrazin-2(1H)-yl]-2H-chromen-2-one]",169 to 173,< 0.1,< 300,***** (fold increase >1.65)
